Measured values as given in patent publication US12187723B2 (BRISTOL-MYERS SQUIBB COMPANY, priority 2019, dated 2025).
Structures can show the parent of a compound that is named as a salt.

Target: T1, human TLR7 (Homo sapiens, UniProt Q9NYK1)
T1 construct: host or cells: HEK-Blue cells
T1 sequence (Q9NYK1 27-1049): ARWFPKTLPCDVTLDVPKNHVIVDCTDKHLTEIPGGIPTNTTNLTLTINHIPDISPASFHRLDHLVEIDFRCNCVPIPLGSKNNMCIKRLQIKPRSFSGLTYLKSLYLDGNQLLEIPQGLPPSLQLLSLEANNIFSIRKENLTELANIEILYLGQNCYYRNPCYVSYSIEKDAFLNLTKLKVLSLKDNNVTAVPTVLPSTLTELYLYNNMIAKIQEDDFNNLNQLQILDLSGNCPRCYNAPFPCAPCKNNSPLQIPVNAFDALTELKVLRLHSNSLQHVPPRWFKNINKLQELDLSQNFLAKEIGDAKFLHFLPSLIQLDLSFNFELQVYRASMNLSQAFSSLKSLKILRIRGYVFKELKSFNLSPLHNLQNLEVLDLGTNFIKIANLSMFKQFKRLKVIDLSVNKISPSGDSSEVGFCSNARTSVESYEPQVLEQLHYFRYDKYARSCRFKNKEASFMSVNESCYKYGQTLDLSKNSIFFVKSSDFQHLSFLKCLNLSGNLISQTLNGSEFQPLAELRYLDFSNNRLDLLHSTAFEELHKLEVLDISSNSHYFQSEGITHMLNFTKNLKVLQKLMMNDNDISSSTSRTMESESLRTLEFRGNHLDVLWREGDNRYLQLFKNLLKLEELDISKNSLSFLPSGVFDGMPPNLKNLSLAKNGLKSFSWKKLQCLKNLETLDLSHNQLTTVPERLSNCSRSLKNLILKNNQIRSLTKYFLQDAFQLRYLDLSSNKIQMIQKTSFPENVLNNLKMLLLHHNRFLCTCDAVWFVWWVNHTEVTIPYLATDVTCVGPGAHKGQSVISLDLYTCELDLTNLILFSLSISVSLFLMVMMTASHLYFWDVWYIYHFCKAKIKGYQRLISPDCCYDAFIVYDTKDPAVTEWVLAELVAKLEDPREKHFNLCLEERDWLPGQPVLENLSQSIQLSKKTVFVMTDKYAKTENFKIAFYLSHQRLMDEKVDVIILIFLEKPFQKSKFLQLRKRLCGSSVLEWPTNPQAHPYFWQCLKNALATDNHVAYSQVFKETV
Assay: TLR7 inhibition reporter assay (HEK-Blue SEAP)
Format: cell-based
Settings: HEK-Blue cells overexpressing human TLR7, gardiquimod 7.5 μM, 22 hour incubation
Method in brief: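 HEK-Blue reporter cells (15,000/well TLR7, 20,000 TLR8) exposed to compound over 0.05 nM–50 μM, agonist-stimulated (R848 for TLR8, gardiquimod for TLR7), 22 h at 37 °C, 5% CO2. SEAP read with HEK-Blue Detection; % inhibition relative to agonist-plus-DMSO and known-inhibitor controls.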

Row | SMILES | IC50 [nM]
1 | Cc1c(-c2cc3[nH]c(=O)n(C4CCC(N5CC6(COC6)C5)CC4)c3cc2C(C)C)cn2ncnc2c1C (single isomer, unassigned) [Example 281, 1-(4-(2-oxa-6-azaspiro[3.3]heptan-6-yl)cyclohexyl)-5-(7,8-dimethyl-[1,2,4]triazolo[1,5-a]pyridin-6-yl)-6-isopropyl-1,3-dihydro-2H-benzo[d]imidazol-2-one] | 12.4
2 | Cc1c(-c2cc3[nH]c(=O)n(C4CCC(N5CCC6(CC5)COC6)CC4)c3cc2C(C)C)cn2ncnc2c1C (single isomer, unassigned) [Example 282, 1-(4-(2-oxa-7-azaspiro[3.5]nonan-7-yl)cyclohexyl)-5-(7,8-dimethyl-[1,2,4]triazolo[1,5-a]pyridin-6-yl)-6-isopropyl-1,3-dihydro-2H-benzo[d]imidazol-2-one] | 10.1
3 | Cc1c(-c2cc3[nH]c(=O)n(C4CCC(N5CCC6(CC5)COC6)CC4)c3cc2C(C)C)cn2ncnc2c1C (single isomer, unassigned) [Example 283, 1-(4-(2-oxa-7-azaspiro[3.5]nonan-7-yl)cyclohexyl)-5-(7,8-dimethyl-[1,2,4]triazolo[1,5-a]pyridin-6-yl)-6-isopropyl-1,3-dihydro-2H-benzo[d]imidazol-2-one] | 1.82
4 | COc1cc(-c2cc3[nH]c(=O)n(C4CCC(N5CCC(S(C)(=O)=O)C5)CC4)c3cc2C(C)C)cn2ncnc12 (single isomer, unassigned) [Example 288, 6-isopropyl-5-(8-methoxy-[1,2,4]triazolo[1,5-a]pyridin-6-yl)-1-(4-(3-(methylsulfonyl)pyrrolidin-1-yl)cyclohexyl)-1,3-dihydro-2H-benzo[d]imidazol-2-one] | 5.09
5 | COc1cc(-c2cc3[nH]c(=O)n(C4CCNCC4)c3cc2C)cn2ncnc12 [1 E, 5-(8-methoxy-[1,2,4]triazolo[1,5-a]pyridin-6-yl)-6-methyl-1-(piperidin-4-yl)-1H-benzo[d]imidazol-2(3H)-one, TFA] | 366
6 | Cc1cc2c(cc1-c1cc(C)c3ncnn3c1)[nH]c(=O)n2C1CCNCC1 [1 EA, 6-methyl-5-(8-methyl-[1,2,4]triazolo[1,5-a]pyridin-6-yl)-1-(piperidin-4-yl)-1,3-dihydro-2H-benzo[d]imidazol-2-one] | 344
7 | Cc1cc(-c2ccc3c(c2)[nH]c(=O)n3C2CCNCC2)cn2ncnc12 [1 EB, 5-(8-methyl-[1,2,4]triazolo[1,5-a]pyridin-6-yl)-1-(piperidin-4-yl)-1,3-dihydro-2H-benzo[d]imidazol-2-one] | 1160
8 | Cc1cc2c(cc1-c1cc(C)c3ncnn3c1)[nH]c(=O)n2C1CCCNC1 (stereo not shown) [1 EC, 6-methyl-5-(8-methyl-[1,2,4]triazolo[1,5-a]pyridin-6-yl)-1-(piperidin-3-yl)-1,3-dihydro-2H-benzo[d]imidazol-2-one] | 105
9 | Cc1cc2c(cc1-c1cc(C)c3ncnn3c1)[nH]c(=O)n2[C@@H]1CCCNC1 [1 ED, (R)-6-methyl-5-(8-methyl-[1,2,4]triazolo[1,5-a]pyridin-6-yl)-1-(piperidin-3-yl)-1,3-dihydro-2H-benzo[d]imidazol-2-one] | 18.1
10 | Cc1cc2c(cc1-c1cc(C)c3ncnn3c1)[nH]c(=O)n2[C@H]1CC[C@@H](N)CC1 [1 EE] | 19.3
11 | Cc1cc2c(cc1-c1cc(C)c3ncnn3c1)[nH]c(=O)n2[C@H]1CC[C@H](N)CC1 [1 EF, 1-((1r,4r)-4-aminocyclohexyl)-6-methyl-5-(8-methyl-[1,2,4]triazolo[1,5-a]pyridin-6-yl)-1,3-dihydro-2H-benzo[d]imidazol-2-one] | 40.7
12 | COc1cc(-c2cc3[nH]c(=O)n([C@H]4CC[C@@H](N)CC4)c3cc2C)cn2ncnc12 [1 EG, 1-((1s,4s)-4-aminocyclohexyl)-5-(8-methoxy-[1,2,4]triazolo[1,5-a]pyridin-6-yl)-6-methyl-1,3-dihydro-2H-benzo[d]imidazol-2-one] | 53.2
13 | COc1cc(-c2cc3[nH]c(=O)n([C@@H]4CCCNC4)c3cc2C)cn2ncnc12 [1 EH, (R)-5-(8-methoxy-[1,2,4]triazolo[1,5-a]pyridin-6-yl)-6-methyl-1-(piperidin-3-yl)-1,3-dihydro-2H-benzo[d]imidazol-2-one] | 43
14 | COc1cc(-c2ccc3c(c2)[nH]c(=O)n3C2CCNCC2)cn2ncnc12 [1 EI, 5-(8-methoxy-[1,2,4]triazolo[1,5-a]pyridin-6-yl)-1-(piperidin-4-yl)-1,3-dihydro-2H-benzo[d]imidazol-2-one] | > 3130
15 | Cc1cc(-c2cc(C)c3ncnn3c2)cc2[nH]c(=O)n(C3CCNCC3)c12 [106 F, 7-methyl-5-(8-methyl-[1,2,4]triazolo[1,5-a]pyridin-6-yl)-1-(piperidin-4-yl)-1,3-dihydro-2H-benzo[d]imidazol-2-one] | 50.5
16 | COc1cc(-c2cc3[nH]c(=O)n([C@@H]4CCCNC4)c3cc2C(F)(F)F)cn2ncnc12 [110 F, (R)-5-(8-methoxy-[1,2,4]triazolo[1,5-a]pyridin-6-yl)-1-(piperidin-3-yl)-6-(trifluoromethyl)-1,3-dihydro-2H-benzo[d]imidazol-2-one] | 28.2
17 | CCc1cc2c(cc1-c1cc(OC)c3ncnn3c1)[nH]c(=O)n2[C@@H]1CCCNC1 [119 FB, (R)-6-ethyl-5-(8-methoxy-[1,2,4]triazolo[1,5-a]pyridin-6-yl)-1-(piperidin-3-yl)-1,3-dihydro-2H-benzo[d]imidazol-2-one] | 5.47
18 | Cc1c(-c2cc3[nH]c(=O)n([C@@H]4CCCNC4)c3cc2C(C)C)cn2ncnc2c1C [119 FC, (R)-5-(7,8-dimethyl-[1,2,4]triazolo[1,5-a]pyridin-6-yl)-6-isopropyl-1-(piperidin-3-yl)-1,3-dihydro-2H-benzo[d]imidazol-2-one] | 3.26

The next lines start with the values.

Row | IC50 [nM] | SMILES
19 | 11.9 | COc1cc(-c2cc3[nH]c(=O)n(C4CCC(N5CCC(S(C)(=O)=O)C5)CC4)c3cc2C(C)C)cn2ncnc12 (single isomer, unassigned) [Example 289, 6-isopropyl-5-(8-methoxy-[1,2,4]triazolo[1,5-a]pyridin-6-yl)-1-(4-(3-(methylsulfonyl)pyrrolidin-1-yl)cyclohexyl)-1,3-dihydro-2H-benzo[d]imidazol-2-one]
20 | 1.38 | COC[C@@H]1CCN(C2CCC(n3c(=O)[nH]c4cc(-c5cc(OC)c6ncnn6c5)c(C(C)C)cc43)CC2)C1 (single isomer, unassigned) [Example 290]
21 | 1.71 | COC[C@@H]1CCN(C2CCC(n3c(=O)[nH]c4cc(-c5cc(OC)c6ncnn6c5)c(C(C)C)cc43)CC2)C1 (single isomer, unassigned) [Example 291]
22 | 2.21 | COc1cc(-c2cc3[nH]c(=O)n(C4CCC(N5C[C@@H](F)[C@@H](F)C5)CC4)c3cc2C(C)C)cn2ncnc12 (single isomer, unassigned) [Example 292]
23 | 10.9 | COc1cc(-c2cc3[nH]c(=O)n(C4CCC(N5C[C@@H](F)[C@@H](F)C5)CC4)c3cc2C(C)C)cn2ncnc12 (single isomer, unassigned) [Example 293]
24 | 1.2 | COc1cc(-c2cc3[nH]c(=O)n(C4CCC(N5CCC(F)(F)C5)CC4)c3cc2C(C)C)cn2ncnc12 (single isomer, unassigned) [Example 294, 1-(4-(3,3-difluoropyrrolidin-1-yl)cyclohexyl)-6-isopropyl-5-(8-methoxy-[1,2,4]triazolo[1,5-a]pyridin-6-yl)-1,3-dihydro-2H-benzo[d]imidazol-2-one]
25 | 41.8 | COc1cc(-c2cc3[nH]c(=O)n(C4CCC(N5CCC(F)(F)C5)CC4)c3cc2C(C)C)cn2ncnc12 (single isomer, unassigned) [Example 295, 1-(4-(3,3-difluoropyrrolidin-1-yl)cyclohexyl)-6-isopropyl-5-(8-methoxy-[1,2,4]triazolo[1,5-a]pyridin-6-yl)-1,3-dihydro-2H-benzo[d]imidazol-2-one]
26 | 31.4 | COc1cc(-c2cc3[nH]c(=O)n(C4CCC(N5CC(F)(F)C5)CC4)c3cc2C(C)C)cn2ncnc12 (single isomer, unassigned) [Example 296]
27 | 37.1 | COc1cc(-c2cc3[nH]c(=O)n(C4CCC(N5CC(F)(F)C5)CC4)c3cc2C(C)C)cn2ncnc12 (single isomer, unassigned) [Example 297]
28 | 16.5 | Cc1c(-c2cc3[nH]c(=O)n(C4CCC(N5CC6(COC6)C5)CC4)c3cc2C(C)C)cn2ncnc2c1C (single isomer, unassigned) [Example 298]
